Among the data in ChEMBL document CHEMBL1933021, “Novel and selective spiroindoline-based inhibitors of Sky kinase” (Bioorg Med Chem Lett, 2012) are Vdss values, retold here.

For the data set, the system named is Rattus norvegicus. The data set is described as follows: Volume of distribution at steady state in po dosed Sprague-Dawley rat. Type of data set: ADME, organism-based. The settings on record: in vivo.

The compound `O=C(c1cc2ccc(F)cc2[nH]1)N1C[C@]2(CCN(C3CCNC3)C2)c2ccccc21` (stereo partly specified) came in with a Vdss of 1.6 L/kg.
